Experimental findings from patent publication US9980993B2, “Nutraceutical supplement with Lactobacillus rhamnosus” (NWO Stem Cure, LLC, priority 2014, dated 2018) are described below.

The assay has as its system human MSC. Put plainly: Anti-oxidative stress testing, LIVE/DEAD Viability/Cytotoxicity Assay with H2O2. Type of assay: cell-based. As to conditions: MSCs, 12 hours of oxidative stress (100 μM H2O2). Here is the method: The percentage of live and dead cells was determined simultaneously by measuring intracellular esterase activity and plasma membrane integrity using the LIVE/DEAD® Viability/Cytotoxicity Assay Kit (Life Technologies). Briefly, human MSC were plated on 24 wells plate. On, next day cells were treated with ingredients and 100 μM H2O2 for 12 hr. The supernatant media from each well was collected into microtubes and cells were washed with 1×PBS, followed by collection of washes into respective microtubes to collect any floating or dead cells. The cells attached to the bottom of the plate were incubated in 1×PBS in a 37° C. incubator. The microtubes were centrifuged at 2000 rpm for 3 min to get the cell pellet. After removing supernatant, cell pellet was resuspended into 1×PBS containing 2 μM calcein AM and 4 μM ethidium/homodimer. […] The cells were then imaged under 10× objective using fluorescence microscope (Olympus IX71).
The percentage of live and dead cells was determined simultaneously by measuring intracellular esterase activity and plasma membrane integrity using the LIVE/DEAD® Viability/Cytotoxicity Assay Kit (Life Technologies). […] The cells were then imaged under 10× objective using fluorescence microscope (Olympus IX71).
Fluorescence microscope images showing a percentage of live and dead MSCs in 24 wells after 12 hours of treatment with oxidative stress (100 μM H2O2) were examined. […]

`C=C1CC[C@H](O)C/C1=C/C=C1\CCC[C@]2(C)[C@@H]([C@H](C)CCCC(C)C)CC[C@@H]12` [Vitamin D alone (0.3 mg), cholecalciferol]: the “Cell Survival Rate Measured by Fluorescence Microscope (%)” value is reported as 2.5%.
